Data on 3 compounds can be found in patent publication US20220167853A1, “Method for plaque detection” (Koite Health Oy, priority 2019, published 2022).

“Also recorded” adds a separate entry of the source.

The test system of assay [1] is Streptococcus mutans biofilm. Nature of the assay: Streptococcus mutans monospecies biofilm model, PDT with indocyanine green, viability by serial dilution CFU. In kind it is cell-based, Streptococcus mutans (ATCC 25175). The settings on record: 250 μg/ml ICG with 810 nm light. On the procedure: Two separate monospecies biofilm model experiments were performed to study the effect of reoccurring photodynamic therapy on biofilm formation. The Streptococcus mutans biofilm experiments were divided in different classes based on biofilm age and the therapy given.
The one-time PDT treatment was performed for 1 day, 2 days and 4 days old biofilms. […] The viability of the bacteria was assessed by serial dilution CFU method which was performed after the last photodynamic therapy treatment.
Streptococcus mutans (ATCC 25175) bacteria was grown over 18 h in growth chamber (36° C., 5% CO2) in BHI-broth (Bio-Rad 3564014). The resulting bacteria suspension was diluted with 0.9% NaCl suspension to optical density of 0.46.
Biofilm was grown on bottom of well plate by adding 100 ul diluted Streptococcus mutans suspension in each well with 100 μl of BHI-broth growth medium. The bacteria plate was incubated in growth chamber (36 Celsius, 5% CO2) and BHI-broth medium changed daily.
Before the light exposure, the growth medium was replaced with indocyanine green suspension which was let to incubate in dark in room temperature for 10 minutes. […] The treatment time was calculated from desired light amount and known intensity.
The light exposure was performed by placing the well plate under known LED light source. The given light intensity was analyzed with Thorlabs PM100D and S121C sensor head. […]

Assay [2] concerns Streptococcus mutans biofilm. Nature of the assay: Potentiation of chlorhexidine with dual wavelength PDT. Particulars: versus reference and treatment with only one wavelength; FIG. 3. In kind it is cell-based. From the text:
Treatment can be combined with use of antibiotics and disinfectants for synergist antipathogen effect. For example, the use phototherapy with chlorhexidine to target biofilms is new to oral disinfection. The results of dual wavelength photodynamic therapy with chlorhexidine against Streptococcus mutans biofilm shown in appendix III are completely new. […] The effectivity is based on photon and anionic photosensitizer ability to penetrate deeper into biofilm and provide efficient bacteria killing inside the biofilm as well as on the surface. The chlorhexidine effect is mostly present only on the surface of the biofilm. High energy photons reduce the biofilm EPS matrix formation that further increases the chlorhexidine effectivity in subsequent treatments. In a second series of tests, potentiation of chlorhexidine with dual wavelength PDT was evaluated.

Assay [3] deals with monospecies biofilm of Streptococcus sobrinus. The settings on record: monospecies biofilm vs planktonic form; cited from earlier work.

Turning to `CC1(C)C(/C=C/C=C/C=C/C=C2\N(CCCCS(=O)(=O)O)c3ccc4ccccc4c3C2(C)C)=[N+](CCCCS(=O)(=O)[O-])c2ccc3ccccc3c21` [ICG, Indocyanine Green], the “effect of PDT treatment on biofilm (CFU)” value in assay [1] (single wavelength, 4 days old biofilm treated every day) is “poor treatment effect”; in assay [1] (treatment given once to 1, 2 and 4 days old biofilms) it was “strong effect”.
Regarding `[H]/N=C(\N/C(=N/[H])NCCCCCCNC(=N)NC(=N)Nc1ccc(Cl)cc1)Nc1ccc(Cl)cc1` [chlorhexidine], the “antimicrobial effect of chlorhexidine combined with multi (dual) wavelength PDT” value in assay [2] is recorded as “increased substantially; also recorded: much stronger effect”. In assay [3], the “greater concentration needed to kill biofilm than planktonic counterpart” value is on record as 100 time.
Take amine fluoride: the “greater concentration needed to kill biofilm than planktonic counterpart” value in assay [3] is listed as 100 time.
